This note sets out measurements from ChEMBL document CHEMBL4811228, “Design, Synthesis, and Activity Evaluation of Novel Acyclic Nucleosides as Potential Anticancer Agents In Vitro and In Vivo” (J Med Chem, 2021).

In data set [1] the test system is SW480. Put plainly: Induction of apoptosis in human SW480 cells assessed as viable cells at 2 uM incubated for 48 hrs by Annexin V-FITC/PI staining based flow cytometry (reference value: 90.56%). The class given is functional. Conditions: read-out: Activity. Background: Flow cytometry measures light scatter and fluorescence of single cells or particles in a stream.

In data set [2] the test system is SW480. Put plainly: Induction of apoptosis in human SW480 cells assessed as late apoptotic cells at 4 uM incubated for 48 hrs by Annexin V-FITC/PI staining based flow cytometry (reference value: 4.67%). The class given is functional.
Data set [3] concerns SW480. Put plainly: Induction of apoptosis in human SW480 cells assessed as increase in Bax protein expression at 2 to 16 uM incubated for 48 hrs by western blot analysis. The class given is functional, cell-based. The settings on record: dose 2-16 µM.
The test system of data set [4] is SW480. The data set is described as follows: Induction of apoptosis in human SW480 cells assessed as late apoptotic cells at 2 uM incubated for 48 hrs by Annexin V-FITC/PI staining based flow cytometry (reference value: 4.67%). The class given is functional.
The test system of data set [5] is SW480. The data set is described as follows: Antiproliferative activity against human SW480 cells assessed as reduction in cell viability incubated for 48 hrs by MTT assay. In kind it is functional, cell-based. The settings on record: SW480, 48 h.
Data set [6] concerns SW480. Put plainly: Induction of mitochondrial membrane potential loss in human SW480 cells assessed as cells with low MMP emitting green fluorescence at 8 uM incubated for 24 hrs by JC-1 staining based flow cytometry (reference value: 17.96%). The class given is functional.
The test system of data set [7] is SW480. Put plainly: Induction of apoptosis in human SW480 cells assessed as increase in cleaved PARP protein expression at 2 to 16 uM incubated for 48 hrs by western blot analysis. The settings on record: dose 2-16 µM. The class given is functional, cell-based. On the technique in general: Immunoblotting shows a protein as a band on a membrane.
A further data set relates to HCT-116. The data set is described as follows: Induction of apoptosis in human HCT-116 cells incubated for 48 hrs by Annexin V-FITC/PI staining based flow cytometry. In kind it is functional, cell-based. Conditions: dose 2-32 µM.
Data set [8] concerns SW480. Put plainly: Induction of mitochondrial membrane potential loss in human SW480 cells assessed as cells with low MMP emitting green fluorescence at 4 uM incubated for 24 hrs by JC-1 staining based flow cytometry (reference value: 17.96%). The class given is functional.
Data set [9] concerns SW480. Put plainly: Induction of mitochondrial membrane potential loss in human SW480 cells assessed as cells with high MMP emitting red fluorescence at 2 uM incubated for 24 hrs by JC-1 staining based flow cytometry (reference value: 64.2%). The class given is functional.
Data set [10] relates to SW480. Put plainly: Induction of apoptosis in human SW480 cells assessed as viable cells at 16 uM incubated for 48 hrs by Annexin V-FITC/PI staining based flow cytometry (reference value: 90.56%). In kind it is functional. Conditions: read-out: Activity.
Data set [11] deals with SW480. Put plainly: Induction of mitochondrial membrane potential loss in human SW480 cells assessed as cells with high MMP emitting red fluorescence at 4 uM incubated for 24 hrs by JC-1 staining based flow cytometry (reference value: 64.2%). The class given is functional.
Data set [12] can be described thus: Toxicity in BALB/c mouse xenografted with human SW480 cells assessed as decrease in body weight at 25 to 50 mg/kg, ip administered every 2 days for 12 days. In kind it is organism-based. Conditions: in vivo, 288 h, dose 25-50 mg/kg, time 12 day.
The subject of data set [13] is SW480. Put plainly: Potency index, ratio of 5-FU IC50 to test compound IC50 for antiproliferative activity against human SW480 cells. In kind it is functional.
Data set [14] relates to SW480. Put plainly: Antitumor activity against human SW480 cells xenografted in BALB/c mouse assessed as reduction in tumor necrosis at 25 to 50 mg/kg, ip administered every 2 days for 12 days by hematoxyin-eosin staining based analysis. In kind it is functional, organism-based. The settings on record: dose 25-50 mg/kg, time 12.0 day. On the technique in general: In xenograft studies the graft and the host belong to different species.

For data set [15], the system named is SW480. The data set is described as follows: Induction of apoptosis in human SW480 cells assessed as necrotic cells at 32 uM incubated for 48 hrs by Annexin V-FITC/PI staining based flow cytometry (reference value: 2.9%). The class given is functional.
The test system of data set [16] is SW480. The data set is described as follows: Induction of apoptosis in human SW480 cells assessed as late apoptotic cells at 8 uM incubated for 48 hrs by Annexin V-FITC/PI staining based flow cytometry (reference value: 4.67%). The class given is functional.
The test system of data set [17] is SW480. The data set is described as follows: Induction of apoptosis in human SW480 cells assessed as early apoptotic cells at 32 uM incubated for 48 hrs by Annexin V-FITC/PI staining based flow cytometry (reference value: 1.87%). The class given is functional.
Data set [18] concerns SW480. The data set is described as follows: Induction of apoptosis in human SW480 cells assessed as necrotic cells at 4 uM incubated for 48 hrs by Annexin V-FITC/PI staining based flow cytometry (reference value: 2.9%). In kind it is functional.
Data set [19] deals with SW480. The data set is described as follows: Induction of apoptosis in human SW480 cells assessed as early apoptotic cells at 8 uM incubated for 48 hrs by Annexin V-FITC/PI staining based flow cytometry (reference value: 1.87%). In kind it is functional.

The source made the active and inactive calls. The rule behind the calls is not given here.

With `CCCCCCCCCC(CCO)n1cnc2c(Cl)ncnc21` (racemic), the viability at 2 µM with SW480 [1] was 73.9%. Further, the Activity with SW480 [2] was 9.11%; in the data set with SW480 [4], 11.69%; with SW480 [6], 36.6%; with HCT-116, “Dose-Dependent Effect”; with SW480 [8], 33.02%; in the data set on SW480 [9], 47.58%. Also, the Activity is given as 33.67% in the data set with SW480 [11]; “Non-Toxic” in data set [12]; 3.89% in the data set on SW480 [15]; 15.47% in the data set on SW480 [16]; 55.55% with SW480 [17]; 7.76% in the data set on SW480 [18]. The Activity in the data set with SW480 [19] is given as 11.03%. For the same molecule, the outcome in the data set with SW480 [3], in the data set on SW480 [7] and in the data set with SW480 [14] was Active. In addition, the IC50 (as a rule, the concentration needed to halve the response being measured) with SW480 [5] amounted to 1.15 µM. Also, the viability at 16 µM in the data set on SW480 [10] was determined as 44%. Besides, in the data set with SW480 [13], the “Ratio IC50” value was found to be 10.
